Assay results published in PubChem BioAssay (NCI).
Values joined by “and” are separate entries in the source; they are usually repeats but may differ in a detail not shown here. Identical values can stand only once.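 Cells were grown in 96-well plates and exposed to each compound for 48 hours at five concentrations; endpoints were interpolated linearly between bracketing concentrations, or set to the highest concentration if not reached. GI50 = concentration required for 50% inhibition of growth. Definition used: TGI = concentration required for complete inhibition of growth.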

Assays:
Test in all cases: NCI anticancer screen, dose series, 48 h
LOX IMVI melanoma = system: LOX IMVI melanoma
SNB-75 CNS = system: SNB-75 CNS
PC-3 prostate = system: PC-3 prostate
RPMI-8226 leukemia = system: RPMI-8226 leukemia
MALME-3M melanoma = system: MALME-3M melanoma
TK-10 renal = system: TK-10 renal
MCF7 breast = system: MCF7 breast
EKVX NSCLC = system: EKVX NSCLC
UACC-62 melanoma = system: UACC-62 melanoma
UACC-257 melanoma = system: UACC-257 melanoma

Structure (SMILES) | GI50 (LOX IMVI melanoma) [nM] | TGI (LOX IMVI melanoma) [µM] | GI50 (SNB-75 CNS) [nM] | TGI (SNB-75 CNS) [µM] | GI50 (PC-3 prostate) [nM] | TGI (PC-3 prostate) [µM] | GI50 (RPMI-8226 leukemia) [µM] | TGI (RPMI-8226 leukemia) [µM] | GI50 (MALME-3M melanoma) [nM] | TGI (MALME-3M melanoma) | GI50 (TK-10 renal) [µM] | TGI (TK-10 renal) [µM] | GI50 (MCF7 breast) [µM] | TGI (MCF7 breast) [µM] | GI50 (EKVX NSCLC) [nM] | TGI (EKVX NSCLC) [µM] | GI50 (UACC-62 melanoma) [nM] | TGI (UACC-62 melanoma) [µM] | GI50 (UACC-257 melanoma) [nM] | TGI (UACC-257 melanoma) [µM]
O=C(c1ccc2ccccc2c1)c1c(C(F)(F)F)n([O-])c2ccc(F)cc2[n+]1=O | 394 | 1.66 | 1470 | 2.82 | 1550 | 3.39 | 0.997 | 3.93 | 397 | 2.3 µM | 1.58 | 3.02 | 1.43 | 3.31 | 1800 | 3.35 | 1600 | 2.95 | 1740 | 3.2
O=C1/C(=C\c2ccccc2)C2OCC=C3CN4CCC56c7ccccc7N1C5C2C3CC46 (stereo not given) | 4900 | 49.8 | 14700 | > 100 | 18000 | > 100 | 5.54 | > 100 | 4670 | 17.9 µM | 7.23 | 73.3 | 5.2 | > 100 | 70500 | > 100 | 1830 | 4.06 | 2160 | 4.11
CC(N1CCOCC1)C(O)(c1ccccc1)c1ccccn1 (stereo not given) |  | > 100 |  | > 100 |  | > 100 |  | > 100 |  | > 100 µM |  | > 100 |  | > 100 |  | > 100 |  | > 100 |  | > 100
Cc1cc(Br)cc(C)c1NC(=O)C(=O)Nn1c(=S)[nH]c2ccccc2c1=O |  | > 100 |  | > 100 |  | > 100 |  | > 100 |  | > 100 µM |  | > 100 |  | > 100 |  | > 100 |  | > 100 |  | > 100
C=CC(C)(O)CC/C=C(\CO)C(=O)OC1C(C)OC(O[C@](C)(C=C)CC/C=C(\CO)C(=O)O[C@H]2C[C@@]3(C(=O)OC4OC(CO)C(O)C(O)C4OC4OC(C)C(OC5OC(CO)C(O)C5O)C(OC5OC(CO)C(O)C(O)C5O)C4O)C(CC2(C)C)C2=CCC4[C@@]5(C)CC[C@H](OC6OC(COC7OC(C)C(O)C(O)C7OC7OCC(O)C(O)C7O)C(O)C(O)C6NC(C)=O)C(C)(C)C5CC[C@@]4(C)[C@]2(C)C[C@H]3O)C(O)C1O (stereo not given in full) | 162 | 0.82 | 154 | 0.894 | 78 | 1.97 | 5 | 18 | 261 | 1.01 µM | 0.097 | 0.237 | 0.822 | 4.1 | 901 | 5.02 | 687 | 5.28 | 461 | 1.47
O=Cc1ccc(N2CCN(c3ccc(C=O)cc3)CC2)cc1 | > 100000 | > 100 | > 100000 | > 100 | > 100000 | > 100 | > 100 | > 100 | 565 | > 100 µM | 4.13 | 76.8 | 97.7 | > 100 | > 100000 | > 100 | 9360 | > 100 | > 100000 | > 100
Cc1cc2nc3c4ccc(Br)cc4n(CCN(C)C)c3nc2cc1C | 532 | 1.9 | 1820 | 5.19 | 1510 | 4.22 | 2.16 | 5.93 | 1440 | 2.92 µM | 1.97 | 7.23 | 1.17 | 3.06 | 2020 | 6.58 | 1820 | 3.68 | 1880 | 3.91
CC(/C=N/N=C(N)N)=N\N=C(N)N | 29900 | 202 | 28300 | 187 | 40300 | 1300 | > 42.8 | 454 | > 39600 | > 76.9 µM and 214 µM | 32.3 | 813 | 19.4 | 1120 | 61500 | 499 | > 55300 | 236 | > 73700 | 521
